# Source: BindingDB's records for patent US10052306 (CADENT THERAPEUTICS, INC., 2018)
# Biological target: Glutamate receptor ionotropic, NMDA 2B (Homo sapiens, UniProt Q13224)
# Experiment: FDSS Assay
# Description: To each well of the plate, 10 μL test compound, control (MK801) or HHnoCa buffer was added to a final concentration of 10 μM with a final concentration of DMSO of 0.1%. Following 10 minutes pre-incubation in the dark, plates are loaded onto the Hamamatsu FDSS 6000. After collecting baseline fluorescence images, 3 μM glutamate, 3 glycine, and 1 mM Ca2+ in HHnoCa buffer is added to each well, and Ca2+ is recorded for 3 minutes. Data were processed by computing ratio of fluorescence at the end of data collection to baseline fluorescence to assess degree of Ca′ influx inhibition relative to that observed in MK801.
# Glutamate receptor ionotropic, NMDA 2B, sequence (Q13224 whole entry): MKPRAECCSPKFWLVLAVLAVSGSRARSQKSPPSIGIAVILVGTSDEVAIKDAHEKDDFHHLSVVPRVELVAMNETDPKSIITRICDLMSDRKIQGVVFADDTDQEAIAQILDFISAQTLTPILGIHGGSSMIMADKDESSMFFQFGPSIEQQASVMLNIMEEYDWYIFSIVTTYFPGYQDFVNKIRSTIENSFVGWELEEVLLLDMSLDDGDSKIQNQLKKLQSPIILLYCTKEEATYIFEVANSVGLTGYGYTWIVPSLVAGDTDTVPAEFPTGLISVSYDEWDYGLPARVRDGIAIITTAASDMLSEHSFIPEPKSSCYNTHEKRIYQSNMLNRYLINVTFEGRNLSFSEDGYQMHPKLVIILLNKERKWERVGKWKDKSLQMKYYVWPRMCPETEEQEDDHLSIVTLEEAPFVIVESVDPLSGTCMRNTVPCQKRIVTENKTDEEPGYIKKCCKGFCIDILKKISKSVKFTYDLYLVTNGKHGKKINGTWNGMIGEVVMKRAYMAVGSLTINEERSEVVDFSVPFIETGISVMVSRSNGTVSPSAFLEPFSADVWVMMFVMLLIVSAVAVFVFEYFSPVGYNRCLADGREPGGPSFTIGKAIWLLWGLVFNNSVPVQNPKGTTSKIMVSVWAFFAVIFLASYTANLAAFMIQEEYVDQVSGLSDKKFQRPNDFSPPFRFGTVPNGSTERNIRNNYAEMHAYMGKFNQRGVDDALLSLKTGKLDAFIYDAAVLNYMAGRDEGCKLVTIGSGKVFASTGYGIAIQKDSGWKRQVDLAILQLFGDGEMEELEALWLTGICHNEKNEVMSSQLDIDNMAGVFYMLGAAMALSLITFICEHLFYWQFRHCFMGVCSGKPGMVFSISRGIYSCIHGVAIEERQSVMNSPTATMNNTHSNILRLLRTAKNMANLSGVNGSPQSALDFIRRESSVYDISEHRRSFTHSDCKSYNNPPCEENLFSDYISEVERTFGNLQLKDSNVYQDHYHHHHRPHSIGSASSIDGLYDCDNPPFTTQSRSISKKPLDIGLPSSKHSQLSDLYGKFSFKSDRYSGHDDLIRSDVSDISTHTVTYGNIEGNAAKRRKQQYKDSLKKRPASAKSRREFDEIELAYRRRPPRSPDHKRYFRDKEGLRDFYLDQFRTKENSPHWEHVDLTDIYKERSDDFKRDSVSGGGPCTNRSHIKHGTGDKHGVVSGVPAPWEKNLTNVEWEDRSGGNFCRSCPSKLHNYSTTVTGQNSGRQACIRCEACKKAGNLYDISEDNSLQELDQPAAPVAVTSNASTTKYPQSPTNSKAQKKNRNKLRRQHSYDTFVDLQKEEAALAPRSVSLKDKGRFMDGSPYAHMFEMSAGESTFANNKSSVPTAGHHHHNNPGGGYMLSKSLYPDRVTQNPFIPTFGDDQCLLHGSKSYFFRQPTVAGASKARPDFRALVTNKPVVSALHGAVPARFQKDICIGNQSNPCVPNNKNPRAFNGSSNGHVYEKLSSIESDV
smiles,measurement,value
"O=C(CN1C[C@@H]2C[C@@](O)(c3ccccc3)C[C@@H]2C1)c1ccc(O)cc1 [US10052306, 65]",IC50,10 µM
